In series [1] the test system is cerebral metabolic activity. Description: NADPARK: FDG-PET, NR-related metabolic pattern (NRRP). The format is in vivo, human. An excerpt: This novel NR-related metabolic pattern (NRRP) was characterized by multiple regional metabolic changes, including bilateral metabolic reductions in the caudate and putamen, extending into the adjacent globus pallidus, and in the thalamus (FIG. 1D-E). […] The NRRP expression can be derived from the FDG-PET data, as previously described (Cell Metab. 2022 Mar. 1; 34(3):396-407.e6). For example, a NR-related metabolic pattern (NRRP) can be identified by using ordinal trends/canonical variates analysis (OrT/CVA), a supervised form of principal component analysis (PCA) (Habeck et al., (2005), Neural Computation 17, 1602-1645). […] Likewise, the reliability of the voxel loadings (i.e., region weights) on the resulting network topography can be assessed using bootstrap resampling procedures (Habeck and Stern (2010), Cell Biochemistry and Biophysics 58, 53-67; Mure et al. (2011), Neuroimage 54, 1244-1253). The analysis can be restricted to the top PC patterns, accounting for greater than 75% of the subject×voxel variance in the longitudinal data. Expression values for these PCs can then be entered singly and in all possible linear combinations to identify significant monotonic trends in the individual subject data, i.e., consistent increases (or decreases) in pattern expression across the subjects with few if any violations (p<0.05; permutation test, 1000 iterations). The resulting coefficients are applied to the corresponding PC patterns to construct the NR-related topography. […] The analysis can be performed within a population or the individual subject's gray matter brain mask defined by the FDG-PET scans, e.g., as outlined in Table 1.

The test system of another series is NAD metabolome. Description: NR-SAFE: NAD and glutathione metabolites in frozen whole blood (NADMed assay). The class given is in vivo, human. How it is done: Analysis was carried out by NADMed (Helsinki, Finland; www.nadmed.com). NAD and glutathione metabolites were extracted from frozen blood in a single step using a proprietary extraction procedure, and each metabolite was measured individually using optimized cyclic enzymatic assays with colorimetric detection.

In a further series the test system is adult humans. Particulars: cited from earlier work.
In the next series the test system is blood NAD^+ levels. The series can be described thus: NAD-brain pharmacokinetic study: whole blood NAD+ response. The format is in vivo, human. The procedure: The NAD-brain study performs a parallel assessment of NAD replenishment therapy pharmacokinetics in the blood and brain of healthy human subjects and subjects with Parkinson's disease (PD). A total of 10 healthy individuals (5 men and 5 women) and 10 individuals with PD (5 men and 5 women) undergo repeated blood sampling and 31P-MRS brain scans during two 20-day periods, each of which starts with 8 days of daily intake of NR 600 mg×2, or NMN 600 mg×2. The two 20-day period is 14 days apart to allow for washout of the previous compound. Blood is analyzed for NR and NAD-metabolites using HPLC-MS. By this approach, we measured the simultaneous change in NAD-metabolism overtime in blood and brain and establish blood and brain pharmacokinetics for NAD replenishment therapy in humans.
NR (Niagen®, Chromadex) at a dose of 600 mg×2 daily). NMN (Restorin®, from Seragon Pharmaceutics, or MIB-626 from Metro International Biotech) at a dose of 600 mg×2 daily.
• At screening, participants are assessed for eligibility, inclusion/exclusion criteria, medical history and concomitant medication is recorded, and informed consent signed. • The NAD-brain study performs a parallel assessment of NAD replenishment therapy pharmacokinetics in the blood and brain of healthy human subjects and subjects with Parkinson's disease (PD). Healthy individuals and individuals with PD undergo repeated blood sampling and 31P-MRS brain scans during two 20-day periods, each of which starts with 8 days of daily intake of NR 600 mg×2, or NMN 600 mg×2 (Table 10). • For each 20-day period the testing (i.e., scanning and blood draw) frequency is shown in Table 10, below. The two 20-day periods are 14 days apart to allow for washout of the previous compound.
Blood is analyzed for NR and NAD-metabolites using HPLC-MS metabolomics. Snap-frozen whole blood is used for the analysis of NAD^+. Blood is drawn from the participant in EDTA tube (VACUETTE® TUBE 2 ml K2E K2EDTA). The EDTA tube is gently inverted at least 10 times without shaking; 8×200 μl of blood from the EDTA tube is aliquoted into 8×0.5 ml micro tubes; these are closed, and all the micro tubes are immerse simultaneously in liquid nitrogen within 2 min from when blood has started flowing into the EDTA tube; then transferred frozen to −80° C. freezer for storage; stored at −80C in freezer-compatible cardboard or plastic storage boxes; and shipped on dry ice.
This is a pharmacokinetic (PK) study where 6 healthy individuals (3 male and 3 female): • 1) Received NR 1200 mg daily (600 mg×2) for 8 days, followed by an additional 11 days follow up, while undergoing serial blood and brain NAD-measurement. • 2) Received NMN 1200 mg daily (600 mg×2) for 8 days, followed by an additional 11 days follow up, while undergoing serial blood and brain NAD-measurement.
The individuals were mixed, so that in stage-1 three individuals received NR and three individuals received NMN, then in stage-2 they switched (Cross-over design). There were almost three weeks (20 days) of washout between the last dose of the first compound, and before the first dose of the second compounds.

Setting [2] is: NADMed assay, V1 to V7, 3000 mg NR daily.

Structures are written as SMILES.

In the case of `NC(=O)c1ccc[n+]([C@@H]2O[C@H](CO)[C@@H](O)[C@H]2O)c1` [NR, nicotinamide riboside], in series [1] (1000 mg NR), the “effect size (ES) of NRRP expression increase vs placebo” value turned out to be 0.883. Also, the “increase in NRRP expression (mean±SD)” value in series [1] (1000 mg NR, NR treatment group) worked out at 0.68±0.86. Moreover, the “effect of NRRP expression change on PD cerebral metabolic pattern” value in series [1] (NR group, 1000 mg daily, FDG-PET) was “partial normalization of the striatal and thalamic hypermetabolism”. Also, the “increase in whole blood NAD^+ levels” value in the series with NAD metabolome (3000 mg NR daily, 4 weeks) is reported as around 3.7 fold. Besides, in the series on NAD metabolome (3000 mg NR daily, 4 weeks, range across individuals), the “increase in whole blood NAD^+ levels, range” value is on record as 1.8-5.8 fold. For the same compound, the “increase in blood NAD^+ levels (maximum)” value in the series on NAD metabolome (3000 mg NR daily, 4 weeks, summary statement) was “up to 5 fold”. Moreover, in the series on NAD metabolome (setting [2]), the “whole blood GSH and GSSG” value is “remained unchanged”; the “whole blood NADH level” value was “marked increase”; the “whole blood NADP^+ and total NADP levels” value was “increase in NADP^+ and total NADP levels”; the “whole blood NADP^+/NADPH ratio” value is reported as “trend towards increased NADP^+/NADPH ratio”. In the series with NAD metabolome (setting [2]), the “whole blood NAD^+ level” value is “marked increase” and the “whole blood NAD^+/NADH ratio” value is “overall elevated NAD^+/NADH ratio”. Besides, the “triglycerides, total cholesterol and LDL” value in the series with adult humans (NR at lower doses, e.g., in combination with pterostilbene) was “mild increase in triglycerides, total cholesterol and LDL”. Also, the “tolerability in adult humans” value in the series with adult humans (doses up to at least 2000 mg daily) is on record as “well tolerated with no evidence of toxicity”. For the same compound, in the series on blood NAD^+ levels (1200 mg daily (600 mg×2) for 8 days, 6 healthy individuals), the “blood NAD^+ levels” value is on record as “increased in all individuals”. The “blood NAD^+ response, NR compared with NMN” value in the series with blood NAD^+ levels (1200 mg daily (600 mg×2) for 8 days, cross-over) was “stronger than the NMN response”. In addition, the “day of maximal NAD levels in the blood” value with blood NAD^+ levels (1200 mg daily for 8 days, last dose morning of day 8) is 9 days. The “time to reach a steady heightened state of NAD-metabolism in blood and brain” value in the series on blood NAD^+ levels (NR supplementation) was “more than 8 days”. Further, in the series with blood NAD^+ levels (after 8 days of precursor intake, 1200 mg daily), the “plateau of blood NAD^+ levels” value was “did not plateau after 8 days”.

These data come from patent US20250275995A1, “NICOTINAMIDE RIBOSIDE DOSAGE REGIMEN FOR TREATING PARKINSON'S DISEASE” (VESTLANDETS INNOVASJONSSELSKAP AS (VIS), priority 2022, published 2025).
